According to patent US20070161592A1, “Method of treating fear” (priority 2005, published 2007):
Entries after “also recorded” stand apart in the source; their conditions may differ.

Key:
[1] = system: NMDAR-mediated currents in the hippocampus; experiment: NMDAR-mediated EPSCs in hippocampal CA1 neurons; assay type: cell-based, mouse; conditions: hippocampus
Protocol: Coronal brain slices ([…]) from 6-8-week-old C57BL/6 mice, containing ACC or hippocampus, were prepared using standard methods (Wei et al., 2001). Slices were transferred to a submerged recovery chamber containing oxygenated (95% O2 and 5% CO2) artificial cerebrospinal fluid (ACSF) (in mM: 124 NaCl, 4.4 KCl, 2 CaCl2, 1 MgSO4, 25 NaHCO3, 1 NaH2PO4, 10 glucose) at room temperature for at least 1 h.
Experiments were performed in a recording chamber on the stage of an Axioskop 2FS microscope with infrared DIC optics for visualizing whole-cell patch clamp recordings. EPSCs were recorded from layer II-III neurons using an Axon 200B amplifier (Axon Instruments, CA) and stimulations were delivered using a bipolar tungsten stimulating electrode placed in layer V of the ACC. In hippocampal slices, EPSCs were evoked by stimulating the Schaffer collateral-commissural pathway. EPSCs were induced by repetitive stimulations at 0.02 Hz and neurons were voltage clamped at −70 mV. The recording pipettes (3-5 MΩ) were filled with solution containing (mM) 145 K-gluconate, 5 NaCl, 1 MgCl2, 0.2 EGTA, 10 HEPES, 2 Mg-ATP, and 0.1 Na3-GTP (adjusted to pH 7.2 with KOH). After obtaining stable EPSCs for 10 min, three kinds of LTP induction paradigms were used within 12 min after establishing the whole-cell configuration to prevent wash out effect on LTP induction (Tsvetkov et al., 2002). The first protocol involved paired presynaptic 80 pulses at 2 Hz with postsynaptic depolarization at +30 mV (referred to as pairing training). The second involved paired 3 presynaptic stimuli that caused 3 EPSPs (10 ms ahead) with 3 postsynaptic APs at 30 Hz, paired 15 times every 5 s (named as EPSPs-APs protocol). The third involved theta-burst stimulation (5 trains of burst with 4 pulses at 100 Hz, at 200 ms interval; repeated 4 times at intervals of 10 s; named as TBS). The NMDAR-mediated component of EPSCs was pharmacologically isolated in Mg^2+-free ACSF containing: CNQX (20 μM), glycine (1 μM) and picrotoxin (100 μM). The patch electrodes contained (in mM) 102 cesium gluconate, 5 TEA-chloride, 3.7 NaCl, 11 BAPTA, 0.2 EGTA, 20 HEPES, 2 MgATP, 0.3 NaGTP, and 5 QX-314 chloride (adjusted to pH 7.2 with CsOH). Neurons were voltage clamped at −60 mV and NMDARs-mediated EPSCs were evoked at 0.05 Hz. Picrotoxin (100 μM) was always present to block GABAA receptor-mediated inhibitory synaptic currents. The access resistance was 15-30 MΩ and was monitored throughout the experiment. Data were discarded if access resistance changed by more than 15% during an experiment. Results are expressed as means±SEM. Statistical comparisons were performed using the Student t-test.
One possible mechanism is that NR2B-containing receptors may contribute more to total NMDA currents in ACC synapses than in hippocampal synapses. […] Application of 0.1 μM or 0.4 μM NVP-AAM077 depressed total NMDAR-mediated currents by 59.0±4.3% (n=5) and 63.2±1.7% (n=6) in the ACC respectively (FIG. 5). On the other hand, application of 0.3 μM or 3 μM Ro25-6981 attenuated total NMDAR-mediated currents by 18.0±1.9% (n=5) and 18.1±3.4% (n=7) in the ACC respectively, showing that 0.3 μM Ro25-6981 was sufficient to block the NR2B-mediated currents (FIG. 5). This experiment was repeated in hippocampal CA1 neurons. […] However, unlike in the ACC, application of 0.3 μM Ro25-6981 alone potentiated, rather than blocked, total NMDAR-mediated currents by 51.3±16.4% in the hippocampus (FIG. 5).
The same experiment was repeated in the hippocampus.

male Sprague Dawley rats = experiment: Rat fear conditioning (contextual and auditory fear memory); assay type: in vivo
Description: For one site drug infusion, 23-guage guide cannulas were implanted bilaterally into the dorsal hippocampus (CA1 region: 3.2 mm posterior to Bregma, ±1.5˜1.7 mm lateral from the midline, 1.7 mm beneath the surface of the skull). For two sites drug infusion, guide cannulas were implanted bilaterally into the dorsal hippocampus (first injection site: 2.8 mm posterior to Bregma, ±1.5 mm lateral from the midline, 1.7 mm beneath the surface of the skull; second injection site: 3.8 mm posterior to Bregma, ±1.8˜2.2 mm lateral from the midline, 1.3 mm beneath the surface of the skull). The dummy cannulas, cut 0.5 mm longer than guide cannulas, were inserted into the guide cannulas to prevent clogging and reduce the risk of infection. Rats were given at least 5 days to recover before experimentation. A 30-gauge injection cannula that was 1.5 mm lower than the guide was used for intra-hippocampal infusion. 1.0 μl Ro25-6981 (0.1 μg /μl) or saline was delivered bilaterally at the rate of 0.5 μl/min using a pump. After infusion, the cannulas were left in place for an additional 2 min to allow the solution to diffuse away from the cannula tip. Fifteen minutes later, rats were conditioned by one pairing of a tone (2.2 kHz, 96 dB, 30 s) and a foot shock (2.0 mA, 2 s) that terminated at the same time as the tone. […] Rats were returned to the conditioning chamber and allowed to stay in the chamber for 3-min without footshock.
However, the effects of local hippocampal injections of NR2B antagonists on fear conditioning have not been examined. Ro25-6981 (5 μg in 0.5 μl) was bilaterally injected into dorsal hippocampi (FIG. 8B) before conditional training. […] The NR2B specific antagonist was also injected into the ACC and hippocampus of rats and contextual and auditory fear memory was then measured. […] Hippocampal injections of a higher dose of Ro25-6981 (5 μg in 1 μl per side) bilaterally or multiple injections of the same dose (2 per side) were then tested to determine their affect on either contextual or auditory fear memory.

[2] = hippocampal injections 5 μg in 1 μl per side, single or multiple (2 per side)

With `C[C@@H](CN1CCC(Cc2ccccc2)CC1)[C@@H](O)c1ccc(O)cc1` [Ro25-6981] the “further reduction of total NMDAR-mediated currents” value ([1]; 0.3 μM Ro25-6981 added to the same neuron after 0.4 μM NVP-AAM077) was 6.6±1.4%, the “potentiation of total NMDAR-mediated currents” value ([1]; 0.3 μM alone) was 51.3±16.4% and the “effect on total NMDAR-mediated currents” value ([1]; bath application, FIG. 5) was “enhanced”. For the same compound, the contextual memory (male Sprague Dawley rats; 0.1 μg in 1 μl bilaterally into dorsal hippocampus before fear conditioning) was “did not impair contextual fear memory; also recorded: did not produce a significant impairment”, the auditory fear memory (male Sprague Dawley rats; [2]) was “Neither single nor multiple injections of Ro25-6981 produced a significant impairment” and the contextual fear memory (male Sprague Dawley rats; [2]) was “Neither single nor multiple injections of Ro25-6981 produced a significant impairment”. For the same compound, the contextual fear memory (male Sprague Dawley rats; in 1 μl per side bilaterally into the ACC before conditioning, tested one day after training) was “impaired contextual fear memory; also recorded: significant reduction in contextual fear memory”, the auditory fear memory (male Sprague Dawley rats; injected in the ACC) was “did not affect auditory fear memory” and the auditory fear memory (male Sprague Dawley rats; injected in the hippocampus) was “did not affect auditory fear memory”.
